How the values were obtained:
GEMIN2 = assay: AP-MS chemical proteomics, GEMIN2; assay type: binding, human
Protocol: The samples for AP-MS were prepared following pulldown procedure as previously described with minor modifications. Briefly, U2OS cells were lysed in RIPA buffer and the cell lysate was equally divided into two groups: (1) DMSO group (control group): the cell lysate was incubated with 20 μM biotin-labeled compound 1; (2) Cpmd 1 group (sample group): the cell lysate was incubated with 20 μM biotin-labeled compound 1 and 200 μM free compound 1. Each group contains three biological replicates. They were incubated overnight at 4 °C, then 30 μL streptavidin beads (Thermo Fisher, 20353) was added and incubated at 4 °C for 1 h. The beads were then washed with RIPA buffer for 3 times, 10 min/time. […]
Samples were analyzed by nanoLC-MS/MS (nanoRSLC, Thermo Fisher) using an Aurora series (Ion Opticks) reversed phase HPLC column (25 cm length × 75 µm inner diameter) and directly injected to an Orbitrap Eclipse (Thermo Fisher) using a 120 min gradient (mobile phase A = 0.1% formic acid, mobile phase B = 99.9% acetonitrile with 0.1% formic acid; hold 2% B for 5 min, 2–6% B in 0.1 min, 6–25% in 100 min, 25–50% in 15 min) at a flow rate of 350 nL/min. Eluted peptide ions were analyzed using a data-dependent acquisition (DDA) method with resolution settings of 120,000 and 15,000 (at m/z 200) for MS1 and MS2 scans, respectively. […]

SMN = molecular target: T1, SMN (Homo sapiens, UniProt Q16637); assay: Biotin-Cmpd 1 pulldown from U2OS cell lysates and western blotting, SMN; assay type: binding; conditions: U2OS cell lysate, 200 μM biotin-free competitor, 20 μM biotin-Cmpd 1
T1 construct: endogenous in cells; host or cells: U2OS
Protocol: U2OS cells were lysed in RIPA buffer (140 mM NaCl, 10 mM Tris-HCl, pH 7.6, 1% Triton, 0.1% sodium deoxycholate, 1 mM EDTA) containing protease inhibitors (Roche, 05892791001). The cell lysate was incubated with 20 μM biotin-Cmpd 1 overnight at 4 °C, then 30 μL streptavidin beads (Thermo Fisher, 20353) was added and incubated at 4 °C for 1 h. The beads were then washed with RIPA buffer for 3 times, 10 min/time and loading buffer was added and boiled for 5 min for elution. The eluted samples were separated by SDS-PAGE for western blotting (SMN monoclonal antibody, BD Transduction Laboratories, 610646, clone No. 8, dilution of 1:1000; TDRD3 rabbit monoclonal antibody, Cell signaling, 5492, clone No. 5492, dilution of 1:1000; SND1 polyclonal antibody, Bethyl, A302-883A, dilution of 1:2000; RFP polyclonal antibody, Abcam, ab62341, dilution of 1:1000; GFP monoclonal antibody, Santa Cruz Biotechnology, sc-9996, dilution of 1:1000; Streptavidin-Horseradish Peroxidase (HRP), Invitrogen, SA10001, dilution of 1:5000) as previously described[52],[53]. For the competition analysis, 200 μM biotin-free compound 1 or compound 15 was added at the same time when the biotin-Cmpd 1 was incubated with the cell lysates.

T1 sequence (Q16637 whole entry): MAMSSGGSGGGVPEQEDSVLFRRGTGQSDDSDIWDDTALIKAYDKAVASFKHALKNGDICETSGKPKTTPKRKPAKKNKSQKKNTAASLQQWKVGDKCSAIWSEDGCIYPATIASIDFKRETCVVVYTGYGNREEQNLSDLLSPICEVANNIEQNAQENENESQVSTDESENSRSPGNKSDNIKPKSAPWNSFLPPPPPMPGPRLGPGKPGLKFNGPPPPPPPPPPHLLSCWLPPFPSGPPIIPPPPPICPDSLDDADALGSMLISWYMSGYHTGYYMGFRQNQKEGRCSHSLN

Cn1c2c(c(=N)c3c1CCC3)CCC2 [Compound 1, 4-methyl-2,3,4,5,6,7-hexahydrodicyclopenta[b,e]pyridin-8(1H)-imine]
Difference (GEMIN2; GN=GEMIN2 (O14893), Cmpd minus DMSO, -LOG(P-value) 2.68522): -5.244 | log2 FC (Cmpd 1/DMSO), GEMIN2 (GEMIN2; biotin-Cmpd 1 pulldown, competition with 200 μM compound 1 relative to DMSO, U2OS lysate): −5.2 | competition of the pulldown of SMN by biotin-Cmpd 1 (SMN): competed out

Reference: paper PMC9481570, “A small molecule antagonist of SMN disrupts the interaction between SMN and RNAP II” (Nature Communications, 2022)
